Experimental data taken from US20260210948A1, “FLUORESCENCE-BASED ASSAY FOR IDENTIFICATION OF PROTAC LIGANDS FOR HECT-TYPE E3 LIGASES” (Purdue Research Foundation, priority 2022, published 2026).

Key:
Rsp5 [1] = test: Iodoacetamide inhibition assay, fluorescence polarization; assay type: biochemical, yeast (S. cerevisiae); settings: Rsp5 incubated with iodoacetamide 12.5-500 μM for 1 hour
Method: Inhibition assays were conducted by first incubating 0.5 μm Rsp5/NEDD4L-Rsp5HYBRID with varying concentration of iodoacetamide (12.5-500 μM) for 1 hour in the reaction buffer (50 mM Tris pH 7.4, 100 mM NaCl, 1 mg/ml BSA). Fluorescence polarization was then measured after adding 0.25 μm E1 enzyme, 0.5 μm UbcH7, 100 μm Ub and 10 μm fluorescein-labeled peptide to the reaction well. The Z-factor (Z′) for the assay was calculated using eight replicates of the positive control (no iodoacetamide addition) and negative control (500 μM iodoacetamide addition). The initial slopes of each of the 16 reactions were calculated, followed by calculation of the positive control and negative control means (μ_+ and μ_−) and standard deviations (σ_+ and σ_−). The mean and standard deviation values were then used to calculate the Z-factor using the following formula (II):
(§1) All assays were carried out at least in triplicate, at a final reaction volume of 100 μL, and utilizing Grenier 96 well plates (Product no. 655097). Fluorescence polarization was measured using a Synergy H4 Plate Reader (BioTek) using 485 nm excitation and 528 nm emission filters.
An iodoacetamide inhibition assay to mimic peptide displacement conditions was performed to test robustness and reproducibility. […]

Rsp5 [2] = test: Peptide-ubiquitination fluorescence polarization assay with Rsp5; assay type: biochemical, yeast (S. cerevisiae); settings: Uba1, UbcH7, Rsp5 lacking the C2 domain, ATP and Ub; λex=485 nm; λem=528 nm
Method: Assays were performed by mixing […] enzyme, 0.5 μm UbcH7, 0.5 μm Rsp5/NEDD4L-Rsp5HYBRID, 100 μM Ub and 10 μM fluorescein-labeled peptide in (50 mM Tris pH 7.4, 100 mM NaCl, 1 mg/ml BSA) buffer. Reaction mixtures were left to equilibrate at room temperature for 10 minutes before taking measurements. Reactions were then started by adding 100 mM ATP. A sample of this reaction was also utilized for SDS-PAGE gel electrophoresis.
as §1
Target sequence in this assay (P39940 229-809 limits assumed): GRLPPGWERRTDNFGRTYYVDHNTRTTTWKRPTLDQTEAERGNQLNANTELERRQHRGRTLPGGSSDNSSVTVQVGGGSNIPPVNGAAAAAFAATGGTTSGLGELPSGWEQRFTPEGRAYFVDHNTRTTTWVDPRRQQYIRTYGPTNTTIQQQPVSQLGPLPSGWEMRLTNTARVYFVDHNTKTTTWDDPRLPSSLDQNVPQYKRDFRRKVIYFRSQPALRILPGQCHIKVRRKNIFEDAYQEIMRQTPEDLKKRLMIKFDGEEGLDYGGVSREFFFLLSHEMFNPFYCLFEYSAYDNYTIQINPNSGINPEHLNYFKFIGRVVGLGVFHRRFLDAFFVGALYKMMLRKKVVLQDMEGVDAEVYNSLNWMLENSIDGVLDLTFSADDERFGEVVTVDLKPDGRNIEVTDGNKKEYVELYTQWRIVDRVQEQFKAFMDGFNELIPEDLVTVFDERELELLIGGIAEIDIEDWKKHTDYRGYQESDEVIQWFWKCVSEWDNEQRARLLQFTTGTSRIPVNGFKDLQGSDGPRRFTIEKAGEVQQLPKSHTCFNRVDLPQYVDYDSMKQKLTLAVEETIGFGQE
A PPxY peptide based on a yeast vesicular snare protein (Sna4) containing the PPxY motif was designed, synthesized, and labeled with fluorescein at the N-terminus. An assay utilizing Uba1 (E1 ubiquitin (Ub)-activating enzyme), UbcH7 (E2 Ub-conjugating enzyme) and Rsp5 ([…] E3 Ub-ligase), which lacked the C2 domain to simplify in vitro screening, in the presence of adenosine triphosphate (ATP) and Ub was performed. Fluorescence polarization (FP) was recorded to monitor ubiquitination of the peptide. […] Ubiquitination of the PPxY peptide was confirmed by SDS-PAGE. […] No fluorescence polarization occurred in the absence of UbcH7, Rsp5, Ub, or ATP.

Compound	rate of peptide ubiquitination (initial slope) (Rsp5 [1])	fluorescence polarization (ubiquitination of the peptide) (Rsp5 [2])
NC(=O)CI [Iodoacetamide, iodoacetamide]	decreasing the rate of peptide ubiquitination	–
NKQSLVESPPPY [PPxY peptide, peptide mimicking residues 128-138 of yeast Sna4 with PPPY motif, fluorescein labeled on the N-terminus]	–	increase in fluorescence polarization
